Experiments:
Prothrombin [1] = molecular target: T1, Prothrombin (Homo sapiens, UniProt P00734); assay: Binding affinity values determined by clotting inhibition assays
Prothrombin [2] = molecular target: T1, Prothrombin; assay: Inhibitory concentration against Thrombin; 0.029-0.15 uM

Ki (Prothrombin [1]) | IC50 (Prothrombin [2]) | SMILES
100 nM | – | CC[C@H](C)[C@H](NC(=O)[C@H]1CCCN1C(=O)[C@H](CCC(=O)O)NC(=O)[C@@H](Cc1ccc(O)cc1)NC(=O)CC(N)C(=O)CCCCCCCNC(=O)c1ccccc1N)C(=O)N1CCC[C@@H]1C(=O)N[C@@H](CCC(=O)O)C(=O)N[C@H](CCC(=O)O)C(=O)N[C@@H](C)C(=O)N[C@H](CC1CCCCC1)C(=O)N[C@@H](CCC(=O)O)C(=O)O (some centres undefined)
100 nM | – | CC[C@H](C)[C@H](NC(=O)[C@H]1CCCN1C(=O)[C@H](CCC(=O)O)NC(=O)[C@@H](Cc1ccc(O)cc1)NC(=O)CC(N)C(=O)CCCCCCCNc1cccc2c(N(C)C)cccc12)C(=O)N1CCC[C@@H]1C(=O)N[C@@H](CCC(=O)O)C(=O)N[C@H](CCC(=O)O)C(=O)N[C@@H](C)C(=O)N[C@H](CC1CCCCC1)C(=O)N[C@@H](CCC(=O)O)C(=O)O (some centres undefined)
100 nM | – | CC[C@H](C)[C@H](NC(=O)[C@H]1CCCN1C(=O)[C@H](CCC(=O)O)NC(=O)[C@@H](Cc1ccc(O)cc1)NC(=O)CC(N)C(=O)CCCCCCCNC(=O)C1=CC(C)(C)N(O)C1(C)C)C(=O)N1CCC[C@@H]1C(=O)N[C@@H](CCC(=O)O)C(=O)N[C@H](CCC(=O)O)C(=O)N[C@@H](C)C(=O)N[C@H](CC1CCCCC1)C(=O)N[C@@H](CCC(=O)O)C(=O)O (some centres undefined)
– | 29 nM | CC[C@H](C)[C@H](NC(=O)[C@H]1CCCN1C(=O)[C@H](CCC(=O)O)NC(=O)[C@@H](Cc1ccc(O)cc1)NC(=O)CCC(=O)O)C(=O)N1CCC[C@@H]1C(=O)N[C@@H](CCC(=O)O)C(=O)N[C@H](CCC(=O)O)C(=O)N[C@@H](C)C(=O)N[C@H](CC1CCCCC1)C(=O)N[C@@H](CCC(=O)O)C(=O)O

Source: ChEMBL document CHEMBL1127748, “Binding of fluorescent and spin-labeled C-terminal hirudin analogs to thrombin” (J Med Chem, 1994)
